Reference: patent publication US7893078B2 (priority 2001, dated 2011)
Several values for one entry are separate records, joined by “and”; a condition that tells them apart may be missing. Identical values can stand only once. Entries after “also recorded” stand apart in the source; their conditions may differ.

Tests used:
[1] = tested on: basal cell carcinoma (BCC); conditions: human, in vivo
Procedure: (§1) The base cream used is made predominantly of heavy paraffin oil (10% w/w), vaseline (10% w/w), stearyl alcohol (8% w/w), polyoxysteareth-40 (3% w/w) and water (68% w/w), but another suitably formulated base cream is also possible. […] Night-time applications, avoided in this schedule because of possible loss of cream from the patient skin to linens during sleep, can be performed by suitable dermal patches.
Every third hour, about 20 μl cream was applied directly onto the lower half and the upper half was left untreated.
The tumor was then followed up without treatment for a study of the possible late effects. […] For example expression of the cell adhesion molecule CD44 is known to increase upon differentiation of the epidermal basal cells to the upper spinous layer cells (Kooy A J et al (1999) Human Pathology 30:1328-1335).

[2] = tested on: trichoepithelioma; conditions: human, in vivo
Source text: (§2) Trichoepithelioma is another tumor associated with genetic changes that cause increased hedgehog-smoothened signalling (Vorechovsky L. et al. (1997) Cancer Res. 57:4677-4681; Nilsson M. et al. (2000) Proc. Natl. Acad. Sci. USA 97:3438-3443).

[3] = tested on: melanocytic nevi; assay: Cyclopamine cream on mole / melanocytic nevi; format: in vivo, human
Source text: as §2

[4] = tested on: normal epidermis and hair follicles; assay: Normal skin exposed to the same schedule and doses of cyclopamine cream; histology, immunohistochemistry and follow-up
Source text: as §1

## CC1=C2C[C@H]3[C@@H](CC=C4C[C@@H](O)CC[C@@]43C)[C@@H]2CC[C@]12O[C@@H]1C[C@H](C)CN[C@H]1[C@H]2C [Cyclopamine]
[1]
  % of Cells Labelled with Ber-Ep4: 0 ± 0%
  % of Cells showing ≦ 2 Morphological Signs of Apoptosis on H & E Stained Tissue Sections: 20 ± 8% and 18 ± 11%
  CD44 labelling of residual tumor cells (differentiation marker): markedly increased, strong labelling of essentially all residual tumor cells
  Clinical regression of BCC: rapid clinical regressions; also recorded: rapid regression; also recorded: largely regressed
  Ki-67 antigen expression (proliferation marker): no longer expressed
  Labelling of residual BCC cells with Ulex Europaeus lectin type 1 (differentiation marker): heterogenous labelling
[2]
  Clinical regression of trichoepithelioma: rapid regression
[3]; 18 mM cyclopamine cream, another volunteer, data not shown
  Effect on melanocytic nevi: rapid depigmentation and disappearance
[3]; cyclopamine by diffusion from adjacent application area, 24th hour
  Size and pigmentation of mole near treated tumor: decreased size and pigmentation
[4]; followed up more than 31 months
  Appearance of former skin sites of cyclopamine application at long-term follow-up: healthy-looking normal skin and hair
[4]; normal skin exposed to same schedule and doses as the BCCs
  Adverse effect on tissues and putative stem cells (histology, cytokeratin 15 and 19, Ber-Ep4): no adverse effect
